This is an account of results in US20240277636A1, “COMBINATION COMPRISING AT LEAST ONE SEROTONIN REUPTAKE INHIBITOR AND AT LEAST ONE STIMULATOR OF POTASSIUM-CHLORIDE COTRANSPORTER TYPE 2 AND ITS MEDICAL USE” (Université de Bordeaux, priority 2021, published 2024).

In this assay the test system is neuropathic mice. The conditions noted are these: conditioned 1 h 30 after injection, post- versus pre-conditioning, result in words.

Description: 14 days after mice are free to explore during 10 minutes, a 2-chamber arena separated by a narrow corridor. A camera placed above the device allows tracking of mice movements. […] 1 H 30 after injection of either fluoxetine alone or combination of fluoxetine and CLP290, mice are restricted to one chamber during 10 minutes. 2 days after mice are put again and free to explore the entire arena. […] As control experiment, the same procedure is performed in neuropathic mice with fluoxetine and CLP290 vehicle.

For the compound `CNCCC(Oc1ccc(C(F)(F)F)cc1)c1ccccc1` (stereo not shown) [fluoxetine], the “time spent in the conditioned chamber (CPP)” value is “not”.
